Experimental data: patent publication US9828385B2, “Spiro-oxazolones” (Hoffmann-La Roche Inc., priority 2014, dated 2017)

Target: T1, human V1a receptor (Homo sapiens, UniProt P37288)
T1 construct: expressed in transfected cells; host or cells: HEK293 cells, transiently transfected; cell membranes
Assay: human V1a receptor binding studies (3H-Vasopressin, SPA beads)
Conditions: membranes of HEK293 cells transiently transfected with human V1a receptor, Ki by Cheng-Prussoff from IC50, read-out: pKi hV1a (converted)
In short: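 Membranes from transiently transfected HEK293 cells expressing cloned human V1a receptor, on yttrium silicate SPA beads, competed against 4 nM 3H-vasopressin (added stock concentration) in Tris buffer with NaCl, KCl, CaCl2, MgCl2 for 1 h at room temperature. Nonspecific binding with cold vasopressin; IC50 by nonlinear fit, Ki via Cheng-Prusoff.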

T1 sequence (P37288 whole entry): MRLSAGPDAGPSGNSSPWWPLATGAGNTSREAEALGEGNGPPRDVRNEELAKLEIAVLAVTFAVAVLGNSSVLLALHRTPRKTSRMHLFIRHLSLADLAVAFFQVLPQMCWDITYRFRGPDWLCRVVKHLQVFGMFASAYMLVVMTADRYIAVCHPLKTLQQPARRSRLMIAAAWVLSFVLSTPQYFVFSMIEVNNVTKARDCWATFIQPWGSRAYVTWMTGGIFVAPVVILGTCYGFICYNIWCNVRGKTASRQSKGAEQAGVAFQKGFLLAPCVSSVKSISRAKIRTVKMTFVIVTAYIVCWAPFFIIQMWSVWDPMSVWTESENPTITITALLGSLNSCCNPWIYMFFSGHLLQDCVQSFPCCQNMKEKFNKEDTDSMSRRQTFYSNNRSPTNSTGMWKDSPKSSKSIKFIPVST

Ki [nM]	SMILES
10	CC1=C(C)CC2(C1)OC(N1CCC3(CC1)OCc1ccccc13)=NC2=O [Example 115, 7,8-Dimethyl-2-(1′H,3H-spiro[2-benzofuran-1,4′-piperidin]-1′-yl)-1-oxa-3-azaspiro[4.4]nona-2,7-dien-4-one]
126	CCOC(=O)C1=CCC2(C1)OC(N1CCC3(CC1)OCc1ccccc13)=NC2=O (centres unmarked) [Example 116, Ethyl 4-oxo-2-(1′H,3H-spiro[2-benzofuran-1,4′-piperidin]-1′-yl)-1-oxa-3-azaspiro[4.4]nona-2,7-diene-7-carboxylate]
1.26	O=C1N=C(N2CCC3(CC2)OCc2ccccc23)OC12CC=C(C(F)(F)F)C2 (centres unmarked) [Example 117, 2-(1′H,3H-Spiro[2-benzofuran-1,4′-piperidin]-1′-yl)-7-(trifluoromethyl)-1-oxa-3-azaspiro[4.4]nona-2,7-dien-4-one]
316	CC(C)(C)[Si](C)(C)OCC1=CCC2(C1)OC(N1CCC3(CC1)OCc1ccccc13)=NC2=O (centres unmarked) [Example 118, 7-({[tert-Butyl(dimethyl)silyl]oxy}methyl)-2-(1′H,3H-spiro[2-benzofuran-1,4′-piperidin]-1′-yl)-1-oxa-3-azaspiro[4.4]nona-2,7-dien-4-one]
1000	O=C1N=C(N2CCC3(CC2)OCc2ccccc23)OC12CC=C(CO)C2 (centres unmarked) [Example 119, 7-(Hydroxymethyl)-2-(3H-spiro[isobenzofuran-1,4′-piperidine]-1′-yl)-1-oxa-3-azaspiro[4.4]nona-2,7-dien-4-one]
10	O=C1N=C(N2CCC3(CC2)OCc2ccccc23)OC12CCCCC2 [Example 123, 2-(1′H,3H-Spiro[2-benzofuran-1,4′-piperidin]-1′-yl)-1-oxa-3-azaspiro[4.5]dec-2-en-4-one]
158	O=C1OC2(CCN(C3=NC(=O)C4(CCCCC4)O3)CC2)c2ccccc21 [Example 124, 1′-(4-Oxo-1-oxa-3-azaspiro[4.5]dec-2-en-2-yl)-3H-spiro[2-benzofuran-1,4′-piperidin]-3-one]
200	O=C1N=C(N2CCC3(CC2)OCc2ccccc23)OC12CCCOC2 (centres unmarked) [Example 125, 2-(1′H,3H-Spiro[2-benzofuran-1,4′-piperidin]-1′-yl)-1,7-dioxa-3-azaspiro[4.5]dec-2-en-4-one]
6.31	O=C1N=C(N2CCC3(CC2)OCc2ccccc23)OC12CCC(F)(F)CC2 [Example 130, 8,8-Difluoro-2-(1′H,3H-spiro[2-benzofuran-1,4′-piperidin]-1′-yl)-1-oxa-3-azaspiro[4.5]dec-2-en-4-one]
50.1	O=C1OC2(CCN(C3=NC(=O)C4(CCC(F)(F)CC4)O3)CC2)c2ccccc21 [Example 131, 1′-(8,8-Difluoro-4-oxo-1-oxa-3-azaspiro[4.5]dec-2-en-2-yl)-3H-spiro[2-benzofuran-1,4′-piperidin]-3-one]
15.8	O=C1N=C(N2CCC3(CC2)OCc2ccccc23)OC12CCSCC2 [Example 132, 2-(1′H,3H-Spiro[2-benzofuran-1,4′-piperidin]-1′-yl)-1-oxa-8-thia-3-azaspiro[4.5]dec-2-en-4-one]
126	O=C1N=C(N2CCC3(CC2)OCc2ccccc23)OC12CCS(=O)(=O)CC2 [Example 133, 2-(1′H,3H-Spiro[2-benzofuran-1,4′-piperidin]-1′-yl)-1-oxa-8-thia-3-azaspiro[4.5]dec-2-en-4-one 8,8-dioxide]
158	CC(C)(C)OC(=O)N1CCC2(CC1)OC(N1CCC3(CC1)OCc1ccccc13)=NC2=O [Example 134, tert-Butyl 4-oxo-2-(1′H,3H-spiro[2-benzofuran-1,4′-piperidin]-1′-yl)-1-oxa-3,8-diazaspiro[4.5]dec-2-ene-8-carboxylate]
398	O=C1N=C(N2CCC3(CC2)OCc2ccccc23)OC12CCN(Cc1ccccc1)CC2 [Example 135, 8-Benzyl-2-(1′H,3H-spiro[2-benzofuran-1,4′-piperidin]-1′-yl)-1-oxa-3,8-diazaspiro[4.5]dec-2-en-4-one]
316	O=C1N=C(N2CCC3(CC2)OCc2ccccc23)OC12CCN(CC(F)F)CC2 [Example 136, 8-(2,2-Difluoroethyl)-2-(1′H,3H-spiro[2-benzofuran-1,4′-piperidin]-1′-yl)-1-oxa-3,8-diazaspiro[4.5]dec-2-en-4-one]
1.58	CC(C)(C)OC(=O)N1Cc2ccccc2CC2(C1)OC(N1CCC3(CC1)OCc1ccccc13)=NC2=O (centres unmarked) [Example 137, tert-Butyl 4′-oxo-2′-(1′H,3H-spiro[2-benzofuran-1,4′-piperidin]-1′-yl)-1,5-dihydro-4′H-spiro[2-benzazepine-4,5′-[1,3]oxazole]-2(3H)-carboxylate]
6.31	O=C1N=C(N2CCC3(CC2)OCc2ccccc23)OC12CNCc1ccccc1C2 (centres unmarked) [Example 138, 2′-(1′H,3H-Spiro[2-benzofuran-1,4′-piperidin]-1′-yl)-1,2,3,5-tetrahydro-4′H-spiro[2-benzazepine-4,5′-[1,3]oxazol]-4′-one]
1.26	CN1Cc2ccccc2CC2(C1)OC(N1CCC3(CC1)OCc1ccccc13)=NC2=O (centres unmarked) [Example 139, 2-Methyl-2′-(1′H,3H-spiro[2-benzofuran-1,4′-piperidin]-1′-yl)-1,2,3,5-tetrahydro-4′H-spiro[2-benzazepine-4,5′-[1,3]oxazol]-4′-one]
0.631	O=C1N=C(N2CCC3(CC2)OCc2ccccc23)OC12CC1CCCCCC1C2 (centres unmarked) [Example 140, 2′-(1′H,3H-Spiro[2-benzofuran-1,4′-piperidin]-1′-yl)-3,3a,4,5,6,7,8,8a-octahydro-1H,4′H-spiro[azulene-2,5′-[1,3]oxazol]-4′-one]
0.501	O=C1N=C(N2CCC3(CC2)OCc2ccccc23)O[C@]12C[C@H]1CCCC[C@H]1C2 [Example 141, 2′-(1′H,3H-Spiro[2-benzofuran-1,4′-piperidin]-1′-yl)-1,3,3a,4,5,6,7,7a-octahydro-4′H-spiro[indene-2,5′-[1,3]oxazol]-4′-one]
158	O=C1C=C2CC3(CC2C1)OC(N1CCC2(CC1)OCc1ccccc12)=NC3=O (centres unmarked) [Example 142, 2-(1′H,3H-Spiro[2-benzofuran-1,4′-piperidin]-1′-yl)-3a′,4′-dihydro-1′H,4H-spiro[1,3-oxazole-5,2′-pentalene]-4,5′(3′H)-dione]
100	O=C1C[C@@H]2CC3(C[C@@H]2C1)OC(N1CCC2(CC1)OCc1ccccc12)=NC3=O (some centres unmarked) [Example 143, 2-(1′H,3H-Spiro[2-benzofuran-1,4′-piperidin]-1′-yl)-3a′,4′,6′,6a′-tetrahydro-1′H,4H-spiro[1,3-oxazole-5,2′-pentalene]-4,5′(3′H)-dione]
79.4	O=C1N=C(N2CCC3(CC2)OCc2ccccc23)OC12C[C@H]1COC[C@H]1C2 (some centres unmarked) [Example 144, 2′-(1′H,3H-Spiro[2-benzofuran-1,4′-piperidin]-1′-yl)-3a,4,6,6a-tetrahydro-1H,3H,4′H-spiro[cyclopenta[c]furan-5,5′-[1,3]oxazol]-4′-one]
3.98	O=C1N=C(N2CCC3(CC2)OCc2ccccc23)O[C@]12C[C@H]1CC(F)(F)C[C@H]1C2 [Example 146, 5′,5′-Difluoro-2-(1′H,3H-spiro[2-benzofuran-1,4′-piperidin]-1′-yl)-3′,3a′,4′,5′,6′,6a′-hexahydro-1′H,4H-spiro[1,3-oxazole-5,2′-pentalen]-4-one]
158	O=C1N=C(N2CCC3(CC2)OCc2ccccc23)OC12C[C@@H]1OS(=O)O[C@@H]1C2 (some centres unmarked) [Example 147, 2′-(1′H,3H-Spiro[2-benzofuran-1,4′-piperidin]-1′-yl)-3a,4,6,6a-tetrahydro-4′H-spiro[cyclopenta[d][1,3,2]dioxathiole-5,5′-[1,3]oxazol]-4′-one 2-oxide]
0.251	O=C1N=C(N2CCC3(CC2)c2ccccc2CS3(=O)=O)OC12Cc1ccccc1C2 [Example 150, 2′-(2,2-Dioxido-1′H,3H-spiro[2-benzothiophene-1,4′-piperidin]-1′-yl)-1,3-dihydro-4′H-spiro[indene-2,5′-[1,3]oxazol]-4′-one]
